Our source for the EC50 values is ChEMBL document CHEMBL4024772, “Aniline-Based Inhibitors of Influenza H1N1 Virus Acting on Hemagglutinin-Mediated Fusion” (J Med Chem, 2018).

Assay in all cases: microbe, parasite or virus in culture
Holding throughout (assay type): functional, cell-based
Common to all, as to conditions: MDCK

In assay [1] the test system is Influenza A virus.
Assay [2] deals with Influenza A virus. This is another data set of the same source.
Assay [3] deals with Influenza A virus. This is another data set of the same source.

Each structure is given as a SMILES string.

Usually EC50 stands for the concentration that produces a half-maximal response. In the case of `CC(C)c1ccccc1NCCN1CCCCC1`, the EC50 in the assay with Influenza A virus [1] was more than 100 µM; in the assay with Influenza A virus [2] it was more than 100 µM; with Influenza A virus [3] it was 2.3 µM.

Take `CC(C)c1ccccc1NCCN1CCCCCC1`: the EC50 was more than 100 µM with Influenza A virus [1], more than 100 µM in the assay with Influenza A virus [2] and 1.5 µM in the assay on Influenza A virus [3].

With `NC(=O)c1ncn([C@@H]2O[C@H](CO)[C@@H](O)[C@H]2O)n1` [RIBAVIRIN], the concentration giving a half-maximal response (EC50) in the assay on Influenza A virus [3] stood at 15 µM.
